What is called IC50 is the concentration needed to halve the response being measured. The term inhibition denotes the share of the control response that was lost under treatment.

The values below come from publication PMC7707092, “Discovery and characterization of ORM‐11372, a novel inhibitor of the sodium‐calcium exchanger with positive inotropic activity” (British Journal of Pharmacology, 2020).

Data set [1] concerns the target hNCX1 (Homo sapiens, UniProt P32418). Description: Confirmatory fluorescence assay for hNCX1 inhibition (forward mode, HEK293 cells, Charles River). It is filed as cell-based. The conditions noted are these: HEK293, forward mode. The method, then: A confirmatory hNCX1 inhibition assay was performed in Charles River Laboratories, Cleveland. Briefly, HEK293 cells stably expressing hNCX1 were plated in 384‐well black wall, clear‐bottom microtitre plates and the next day loaded with Fluo‐8 for 30 min at 37°C. A plate was inserted into a FLIPR^TETRA, and a baseline was recorded during a preincubation period where test compound or vehicle in a Na^+‐free HB‐PS containing thapsigargin (6 μM) and […] (30 μM) was added to each well for ~5 min. Next, the NCX1 stimulation period was recorded in which Na^+‐containing HB‐PS (with 2‐μM thapsigargin and 10‐μM FCCP) was added. The experiments were performed at room temperature. The kinetic data generated were reduced for each well to maximum relative fluorescence units (RFU) minus minimum RFU after subtracting bias based on the first sample. The mean of the max–min RFU values during the stimulation period for the 3–4 replicates at each concentration on a plate was then plotted versus concentration and fitted to a Hill equation.

Data set [2] deals with T1, MAO B (Homo sapiens, UniProt P27338).
T1 sequence (P27338 1-520): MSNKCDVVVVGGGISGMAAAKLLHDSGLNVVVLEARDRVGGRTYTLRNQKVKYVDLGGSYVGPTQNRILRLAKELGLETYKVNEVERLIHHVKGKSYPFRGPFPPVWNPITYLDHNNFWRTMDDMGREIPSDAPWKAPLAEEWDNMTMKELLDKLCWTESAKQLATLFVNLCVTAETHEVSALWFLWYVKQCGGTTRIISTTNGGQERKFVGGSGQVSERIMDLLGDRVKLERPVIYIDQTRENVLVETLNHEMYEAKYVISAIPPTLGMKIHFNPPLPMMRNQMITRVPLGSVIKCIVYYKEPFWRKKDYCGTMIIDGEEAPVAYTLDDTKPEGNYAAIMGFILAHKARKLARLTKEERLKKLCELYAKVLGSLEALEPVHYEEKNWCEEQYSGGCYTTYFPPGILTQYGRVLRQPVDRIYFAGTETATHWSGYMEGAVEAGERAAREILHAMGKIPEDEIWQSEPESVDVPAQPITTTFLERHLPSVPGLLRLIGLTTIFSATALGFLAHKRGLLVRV
Put plainly: MAO B inhibition (Table S2). In kind it is biochemical.

Data set [3] has as its target hERG (Homo sapiens, UniProt Q12809). Description: hERG IC50 of Table 1 / Table S2 (method not assigned). In kind it is cell-based. The conditions noted are these: n=4 assays. A general note: The hERG channel carries a current that helps repolarise heart muscle cells.
Where [4] appears, read: Table S2, read-out: hNCX1-HEK IC50.

Where two headings read alike, the source gives them in different places.

Sequence of hERG (Q12809 whole entry): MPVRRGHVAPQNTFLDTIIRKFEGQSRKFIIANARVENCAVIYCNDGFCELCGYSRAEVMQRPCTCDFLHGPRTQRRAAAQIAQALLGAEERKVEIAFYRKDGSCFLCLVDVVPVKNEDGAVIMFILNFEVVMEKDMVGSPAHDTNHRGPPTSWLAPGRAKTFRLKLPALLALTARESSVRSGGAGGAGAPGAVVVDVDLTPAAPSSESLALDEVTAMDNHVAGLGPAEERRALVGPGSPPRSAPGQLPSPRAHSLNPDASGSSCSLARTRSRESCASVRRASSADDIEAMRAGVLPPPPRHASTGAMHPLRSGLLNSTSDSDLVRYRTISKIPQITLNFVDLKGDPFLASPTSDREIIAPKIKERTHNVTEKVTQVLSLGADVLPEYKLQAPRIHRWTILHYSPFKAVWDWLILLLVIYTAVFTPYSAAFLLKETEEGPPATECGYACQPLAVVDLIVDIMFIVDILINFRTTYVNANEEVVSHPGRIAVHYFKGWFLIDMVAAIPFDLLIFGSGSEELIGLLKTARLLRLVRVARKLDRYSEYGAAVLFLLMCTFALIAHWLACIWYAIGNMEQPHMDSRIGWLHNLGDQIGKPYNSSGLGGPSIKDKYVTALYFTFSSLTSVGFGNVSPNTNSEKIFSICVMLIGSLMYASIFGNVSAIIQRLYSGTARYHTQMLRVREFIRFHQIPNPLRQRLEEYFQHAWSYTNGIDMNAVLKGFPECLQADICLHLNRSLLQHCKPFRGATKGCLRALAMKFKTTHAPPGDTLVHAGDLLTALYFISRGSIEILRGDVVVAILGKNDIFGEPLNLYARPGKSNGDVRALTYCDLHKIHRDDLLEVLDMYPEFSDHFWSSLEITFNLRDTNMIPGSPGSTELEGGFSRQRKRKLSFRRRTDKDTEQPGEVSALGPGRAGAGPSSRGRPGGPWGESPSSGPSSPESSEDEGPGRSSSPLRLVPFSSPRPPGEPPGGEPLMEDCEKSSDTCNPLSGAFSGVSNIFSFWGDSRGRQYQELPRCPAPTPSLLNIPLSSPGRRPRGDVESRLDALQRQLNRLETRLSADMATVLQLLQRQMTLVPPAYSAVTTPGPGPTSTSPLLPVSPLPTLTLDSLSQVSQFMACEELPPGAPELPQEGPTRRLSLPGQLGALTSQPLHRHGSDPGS

`O=C(CN1CCC(O)CC1)Nc1ccc(Oc2ccc3c(c2)CCC(c2ccccc2)O3)nc1` (stereo not shown) [ORM-10962]: the values for the IC50 in data set [1] (setting [4]) and in data set [3] were 630 nM and 3400 nM, respectively. Further, in data set [2] (10 μM), the “MAO B inhibition” value is listed as 52%.
As to `Nc1cccc(-c2ccc(CNc3ccc(F)cc3)o2)c1` [ORM‐11372], the IC50 is 142 nM in data set [1] (0.3% DMSO, read-out: IC50 hNCX1 calcium efflux signal); 164 nM in data set [1] (1% DMSO, read-out: IC50 hNCX1 calcium efflux signal); 10600 nM in data set [3]. The compound further gave an inhibition at 10 µM in data set [2] (10 μM) of 77%.
Consider `CCOc1ccc(Oc2ccc(OCc3cc(F)ccc3F)cc2)c(N)c1` [SEA0400, reference compound], for which the results for the IC50 in data set [1] (setting [4]), in data set [2] and in data set [3] were 2210 nM, 176 nM and 2800 nM, respectively.
